The target of this assay is Human RSK2 (Homo sapiens (Human), UniProt P51812). The assay can be described thus: Human RSK2 Assay (Kinase Glo Plus, residual ATP). In kind it is biochemical. As to conditions: 0.75 nM His-RSK2, 0.75 μM ATP, 1.0 μM S6 Kinase/RSK Substrate Peptide 1. The procedure: Experimental Method A: Human RSK2 Assay
Chain of Human RSK2 (P51812 whole entry): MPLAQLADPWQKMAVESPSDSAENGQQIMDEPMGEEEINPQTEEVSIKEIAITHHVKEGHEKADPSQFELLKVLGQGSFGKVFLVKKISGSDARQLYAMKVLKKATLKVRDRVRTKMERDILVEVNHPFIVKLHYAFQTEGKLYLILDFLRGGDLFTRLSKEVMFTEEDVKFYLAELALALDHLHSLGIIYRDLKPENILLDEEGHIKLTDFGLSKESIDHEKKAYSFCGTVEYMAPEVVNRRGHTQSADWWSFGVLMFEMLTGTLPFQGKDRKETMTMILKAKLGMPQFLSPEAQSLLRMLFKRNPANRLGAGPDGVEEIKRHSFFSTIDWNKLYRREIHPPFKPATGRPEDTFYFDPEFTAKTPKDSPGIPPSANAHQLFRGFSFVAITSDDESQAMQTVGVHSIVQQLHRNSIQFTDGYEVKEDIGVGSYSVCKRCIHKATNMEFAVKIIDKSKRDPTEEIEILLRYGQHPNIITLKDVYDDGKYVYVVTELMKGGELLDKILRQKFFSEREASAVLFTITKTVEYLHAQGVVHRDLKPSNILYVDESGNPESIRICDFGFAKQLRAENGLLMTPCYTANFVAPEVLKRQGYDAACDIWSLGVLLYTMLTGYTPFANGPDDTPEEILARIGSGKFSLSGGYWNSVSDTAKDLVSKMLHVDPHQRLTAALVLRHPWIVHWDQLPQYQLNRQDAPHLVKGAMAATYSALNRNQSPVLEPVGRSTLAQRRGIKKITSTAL
Compounds are assessed for their ability to inhibit the phosphorylation of a substrate peptide by RSK2.
Human RSK2 protein, purchased from Invitrogen, is used to measure kinase activity utilizing Kinase Glo Plus (Promega) a homogeneous assay technology, which uses a luciferin-luciferase based ATP detection reagent to quantify residual ATP. The assay is performed using 0.75 nM His-RSK2, 0.75 μM ATP and 1.0 μM S6 Kinase/RSK Substrate Peptide 1 (Upstate, catalog #12-124), in assay buffer consisting of 25 mM HEPES, pH 7.5, 10 mM MgCl2, 5 mM MnCl2, 50 mM KCl, 0.2% BSA, 0.01% CHAPS, 100 μM Na3VO4, 0.5 mM DTT, and 1% DMSO. Solutions of test compounds at various concentrations are prepared by 1:3 fold serial dilution of a 1 mM solution of compound in DMSO. The DMSO solutions are further diluted with assay buffer to a final concentration of DMSO of 5%.
The assay is performed in a 384 well, white, non-binding plate (Corning, catalogue #3574). Solutions of test compounds (10 μL) are transferred to a dry assay plate, followed by addition of 20 μL kinase and 20 μL ATP+Substrate Peptide 1 described above. The kinase reaction mixture is incubated for 90 minutes at 28° C. followed by addition of 30 μL of ATP detection reagent for 15 minutes at room temperature. The relative light unit (RLU) signal is measured on a LJL Analyst (Molecular Devices) in luminescence mode using 384 aperture. The RLU signals were converted to percent of control (POC) values using the formula: POC=100*(BCTRL−Signal)/(BCTRL−PCTRL), where Signal is the test well RLU signal, BCTRL is the average of background (negative control), which consists of ATP+peptide and compound buffer, well signals on the plate, and PCTRL is the average of positive control, which consists of kinase, ATP+peptide, and compound buffer, well signals on the plate. For concentration-responsive compounds, POC as a function of test compound concentration are fitted to a 4-parameter logistic equation of the form: Y=A+(B−A)/[1+(x/C)^D], where A, B, C, and D are fitted parameters (parameter B is fixed at zero POC), and x and y are the independent and dependent variables, respectively. The IC50 (50% inhibitory concentration) is determined as the inflection point parameter, C. Experimental Method B: Human RSK2 Trans-Reporter Assay
(Kinase-Glo measures the ATP left after a reaction by luminescence.)
`Cc1ccnc(NC(=O)c2ccc3nc4n(c3c2)CCCNC4=O)c1` [Example 5, N-(4-methylpyridin-2-yl)-1-oxo-2,3,4,5-tetrahydro-1H-[1,4]diazepino[1,2-a]benzimidazole-8-carboxamide]: the IC50 (commonly the concentration that gives 50% inhibition) came out at 3200 nM.

Consider `CC(C)(C)c1cc(NC(=O)c2ccc3nc4n(c3c2)CCCNC4=O)no1` [Example 21, N-(5-tert-butyl-1,2-oxazol-3-yl)-1-oxo-2,3,4,5-tetrahydro-1H-[1,4]diazepino[1,2-a]benzimidazole-8-carboxamide], for which the IC50 came out at 2000 nM.

Consider `C[C@@H]1NC(=O)c2cc3ccc(C(=O)Nc4nc5ccccc5n4CCCN(C)C)nc3n2[C@H]1C` (relative stereo) [Example 78, N-{1-[3-(dimethylamino)propyl]-1H-benzimidazol-2-yl}-trans-8,9-dimethyl-6-oxo-6,7,8,9-tetrahydropyrido[3′,2′:4,5]pyrrolo[1,2-a]pyrazine-2-carboxamide], for which the half-inhibitory concentration (IC50) was found to be 205 nM.

With `CCc1cc(NC(=O)c2ccc3cc4n(c3n2)CC(C)(C)CNC4=O)no1` [Example 88, N-(5-ethyl-1,2-oxazol-3-yl)-9,9-dimethyl-6-oxo-7,8,9,10-tetrahydro-6H-pyrido[3′,2′:4,5]pyrrolo[1,2-a][1,4]diazepine-2-carboxamide], the half-maximal inhibitory concentration (IC50) worked out at 109 nM.

For `O=C(Nc1cnc2c(cnn2CC2CCOC2)c1)c1ccc2cc3n(c2n1)CCCNC3=O` (stereo not shown) [Example 36, 6-oxo-N-[1-(tetrahydrofuran-3-ylmethyl)-1H-pyrazolo[3,4-b]pyridin-5-yl]-7,8,9,10-tetrahydro-6H-pyrido[3′,2′:4,5]pyrrolo[1,2-a][1,4]diazepine-2-carboxamide], the IC50 was 13 nM.

Take `CCn1c(NC(=O)c2ccc3cc4n(c3n2)CC(C)(C)CNC4=O)nc2ccccc21` [Example 56, N-(1-ethyl-1H-benzimidazol-2-yl)-9,9-dimethyl-6-oxo-7,8,9,10-tetrahydro-6H-pyrido[3′,2′:4,5]pyrrolo[1,2-a][1,4]diazepine-2-carboxamide]: the half-maximal inhibitory concentration (IC50) stood at 195 nM.

For `CC1CCNC(=O)c2cc3ccc(C(=O)Nc4cnn(C)c4)nc3n21` (stereo not shown) [Example 40, 10-methyl-N-(1-methyl-1H-pyrazol-4-yl)-6-oxo-7,8,9,10-tetrahydro-6H-pyrido[3′,2′:4,5]pyrrolo[1,2-a][1,4]diazepine-2-carboxamide], the IC50 worked out at 0.78 nM.

For the compound `CC1(C)CNC(=O)c2cc3ccc(C(=O)Nc4cc(-c5ccccc5)on4)nc3n2C1` [Example 92, 9,9-dimethyl-6-oxo-N-(5-phenyl-1,2-oxazol-3-yl)-7,8,9,10-tetrahydro-6H-pyrido[3′,2′:4,5]pyrrolo[1,2-a][1,4]diazepine-2-carboxamide], the half-inhibitory concentration (IC50) was determined as 502 nM.

Consider `C[C@H]1CNC(=O)c2cc3ccc(C(=O)Nc4nc5ccccc5n4CCCN(C)C)nc3n21` [Example 75, (9S)-N-{1-[3-(dimethylamino)propyl]-1H-benzimidazol-2-yl}-9-methyl-6-oxo-6,7,8,9-tetrahydropyrido[3′,2′:4,5]pyrrolo[1,2-a]pyrazine-2-carboxamide], for which the IC50 turned out to be 265 nM.

Regarding `CC1(C)CNC(=O)c2cc3ccc(C(=O)Nc4cnc5c(cnn5C5CCOCC5)c4)nc3n2C1` [Example 34, 9,9-dimethyl-6-oxo-N-[1-(tetrahydro-2H-pyran-4-yl)-1H-pyrazolo[3,4-b]pyridin-5-yl]-7,8,9,10-tetrahydro-6H-pyrido[3′,2′:4,5]pyrrolo[1,2-a][1,4]diazepine-2-carboxamide], the half-maximal inhibitory concentration (IC50) stood at 62 nM.

As to `C[C@H]1CNC(=O)c2cc3ccc(C(=O)Nc4cc(Cc5ccccc5)on4)nc3n21` [Example 97, (9S)-N-(5-benzyl-1,2-oxazol-3-yl)-9-methyl-6-oxo-6,7,8,9-tetrahydropyrido[3′,2′:4,5]pyrrolo[1,2-a]pyrazine-2-carboxamide], the half-inhibitory concentration (IC50) amounted to 490 nM.

For the compound `O=C(Nc1cccc(F)c1)c1ccc2cc3n(c2n1)CCCNC3=O` [Example 25, N-(3-fluorophenyl)-6-oxo-7,8,9,10-tetrahydro-6H-pyrido[3′,2′:4,5]pyrrolo[1,2-a][1,4]diazepine-2-carboxamide], the half-inhibitory concentration (IC50) was found to be 20 nM.

Take `Cn1c(NC(=O)c2ccc3cc4n(c3n2)CC(C)(C)CNC4=O)nc2ccccc21` [Example 52, 9,9-dimethyl-N-(1-methyl-1H-benzimidazol-2-yl)-6-oxo-7,8,9,10-tetrahydro-6H-pyrido[3′,2′:4,5]pyrrolo[1,2-a][1,4]diazepine-2-carboxamide]: the IC50 was determined as 2500 nM.

Take `O=C(Nc1cnc2ccccc2c1)c1ccc2nc3n(c2c1)CCCNC3=O` [Example 12, 1-oxo-N-(quinolin-3-yl)-2,3,4,5-tetrahydro-1H-[1,4]diazepino[1,2-a]benzimidazole-8-carboxamide]: the IC50 was 1200 nM.

For `C[C@@H]1CNC(=O)c2cc3ccc(C(=O)Nc4cnc5ccccc5c4)nc3n21` [Example 64, (9R)-9-methyl-6-oxo-N-(quinolin-3-yl)-6,7,8,9-tetrahydropyrido[3′,2′:4,5]pyrrolo[1,2-a]pyrazine-2-carboxamide], the 50% inhibitory concentration (IC50) was determined as 3 nM.

Consider `CN(C)CCCn1c(NC(=O)c2ccc3nc4n(c3c2)CCCNC4=O)nc2ccccc21` [Example 16, N-{1-[3-(dimethylamino)propyl]-1H-benzimidazol-2-yl}-1-oxo-2,3,4,5-tetrahydro-1H-[1,4]diazepino[1,2-a]benzimidazole-8-carboxamide], for which the half-maximal inhibitory concentration (IC50) came out at 92 nM.

In the case of `CC(C)n1ncc2cc(NC(=O)c3ccc4cc5n(c4n3)C(C)CCNC5=O)cnc21` (stereo not shown) [Example 29, 10-methyl-6-oxo-N-[1-(propan-2-yl)-1H-pyrazolo[3,4-b]pyridin-5-yl]-7,8,9,10-tetrahydro-6H-pyrido[3′,2′:4,5]pyrrolo[1,2-a][1,4]diazepine-2-carboxamide], the concentration for half-maximal inhibition (IC50) is 2.1 nM.

Turning to `C[C@@H]1CNC(=O)c2cc3ccc(C(=O)Nc4cc(Cc5ccccc5)on4)nc3n21` [Example 98, (9R)-N-(5-benzyl-1,2-oxazol-3-yl)-9-methyl-6-oxo-6,7,8,9-tetrahydropyrido[3′,2′:4,5]pyrrolo[1,2-a]pyrazine-2-carboxamide], the IC50 amounted to 3.9 nM.

As to `CCn1c(NC(=O)c2ccc3cc4n(c3n2)[C@@H](C)CNC4=O)nc2ccccc21` [Example 71, (9S)-N-(1-ethyl-1H-benzimidazol-2-yl)-9-methyl-6-oxo-6,7,8,9-tetrahydropyrido[3′,2′:4,5]pyrrolo[1,2-a]pyrazine-2-carboxamide], the IC50 was found to be 54.5 nM.

For the compound `Cc1cc(NC(=O)c2ccc3cc4n(c3n2)C(C)CCNC4=O)no1` (stereo not shown) [Example 82, 10-methyl-N-(5-methyl-1,2-oxazol-3-yl)-6-oxo-7,8,9,10-tetrahydro-6H-pyrido[3′,2′:4,5]pyrrolo[1,2-a][1,4]diazepine-2-carboxamide], the half-inhibitory concentration (IC50) was 5.2 nM.

`CC1(C)CNC(=O)c2cc3ccc(C(=O)Nc4cnc5c(cnn5CC5CCOC5)c4)nc3n2C1` (stereo not shown) [Example 37, 9,9-dimethyl-6-oxo-N-[1-(tetrahydrofuran-3-ylmethyl)-1H-pyrazolo[3,4-b]pyridin-5-yl]-7,8,9,10-tetrahydro-6H-pyrido[3′,2′:4,5]pyrrolo[1,2-a][1,4]diazepine-2-carboxamide]: the IC50 turned out to be 25 nM.

On to `Cc1cc(NC(=O)c2ccc3nc4n(c3c2)CCCNC4=O)no1` [Example 20, N-(5-methyl-1,2-oxazol-3-yl)-1-oxo-2,3,4,5-tetrahydro-1H-[1,4]diazepino[1,2-a]benzimidazole-8-carboxamide], for which the concentration for half-maximal inhibition (IC50) was 1550 nM.

As to `CN(C)CCCn1c(NC(=O)c2ccc3cc4n(c3n2)CC(C)(C)CNC4=O)nc2ccccc21` [Example 58, N-{1-[3-(dimethylamino)propyl]-1H-benzimidazol-2-yl}-9,9-dimethyl-6-oxo-7,8,9,10-tetrahydro-6H-pyrido[3′,2′:4,5]pyrrolo[1,2-a][1,4]diazepine-2-carboxamide], the IC50 turned out to be 2300 nM.

As to `Cn1cc(NC(=O)c2ccc3cc4n(c3n2)CCCNC4=O)cn1` [Example 41, N-(1-methyl-1H-pyrazol-4-yl)-6-oxo-7,8,9,10-tetrahydro-6H-pyrido[3′,2′:4,5]pyrrolo[1,2-a][1,4]diazepine-2-carboxamide], the IC50 is 4.8 nM.

As to `NC(=O)c1ccccc1NC(=O)c1ccc2cc3n(c2n1)CCCNC3=O` [Example 26, N-(2-carbamoylphenyl)-6-oxo-7,8,9,10-tetrahydro-6H-pyrido[3′,2′:4,5]pyrrolo[1,2-a][1,4]diazepine-2-carboxamide], the IC50 is 2.3 nM.
